In patent US5446020A (Scios Nova Inc., priority 1993, dated 1995):

Tests used:
rats = assay: euglycemic, hyperinsulinemic clamp with 3H-glucose tracer; format: in vivo; conditions: rat clamp
Method: Analogs of the invention can be tested in a euglycemic, hyperinsulinemic rat clamp using ^3 H-glucose as a tracer. In accordance with this technique, glucose is infused to maintain euglycemia. […] Using ^3 H-glucose, glucose utilization by the periphery (Rd) and glucose production by the liver (HGO) can be calculated under steady state conditions using the equation of Steel et al., Am. J. Physiol. (1956) 187:15-24, incorporated herein by reference.
Analogs were tested using the euglycemic, hyperinsulinemic clamp method. […] The exogenous glucose was infused at a rate sufficient to maintain euglycemia for the duration of the experiment. Additionally, [D-3-^3 H] glucose (tracer) is infused to assess glucose metabolism (i.e, glucose turnover). The steady state equation of Steele et al. (Am. J. Physiol. (1956) 187:15-241) was used to calculate hepatic glucose output and the rate of glucose disposal. Under steady state conditions, glucose (mg/ml) and ^3 H-glucose (dpm/ml) levels are constant. Under these conditions the rate of glucose appearance (Ra)=rate of glucose disappearance (Rd). At steady state Ra =Rd. Ra is further defined as the rate of glucose entering the glucose pool (approximately the blood volume and other extra-cellular volume). Ra is equal to the rate at which the liver is making glucose plus the rate of any exogenous glucose infusion. Rd is equal to the rate of glucose leaving the pool.
Three main parameters are used to assess the effects of the analogs. The rate of exogenous infusion (i.e., glucose infusion rate, GIR or M) estimates the potency of analog. […] Finally, hepatic glucose output (HGO), reflects the ability of the analogs to suppress the liver's production of glucose.
Four to five days prior to experimentation, 65 mg/kg of sodium pentobarbital was administered intraperitoneally to anesthetize rats. Catheters were inserted in the right jugular vein and left carotid artery. The catheters were routed subcutaneously to the dorsal region of the neck and exteriorized. […] Blood samples were taken from the jugular vein. […] At 10 minute intervals after starting hormone infusion, 50 μl blood samples were taken to determine the plasma glucose level. During infusion of hormone, a 30% glucose solution was infused at an empirically determined rate to maintain the basal glucose level.
Aliquots of whole blood were obtained at -20, -10 and 0 minutes before the clamp was started, and later at 70, 80, and 90 minutes into the clamp and the plasma glucose level determined. Glucose specific activity at these times was also determined as follows: [formula]
The blood was deproteinized with 10% TCA, centrifuged, and an aliquot of supernatant dried in a vacuum oven to evaporate off ^3 H2 O. The ^3 H-glucose levels in the sample were determined using a liquid scintillation counter. Basal Ra (glucose appearance rate) and clamp Ra were calculated by using steady state glucose specific activity (basal: -20, -10 and 0 minutes; clamp: 70, 80, 90 minutes) and the following equation: [formula] Under basal conditions, at steady state, Ra =Rd and Ra hepatic glucose output. Under clamp conditions, at a steady state, Ra =Rd, however under these conditions, Ra =hepatic glucose output plus exogenous glucose infusion rate. Hepatic glucose output under clamp conditions was determined by subtracting the glucose infusion rate from the calculated Rd.

[1] = in vivo; cited from earlier work
[2] = of the potency of native insulin; cited from earlier work
[3] = cited from earlier work

| Substance | GIR (glucose infusion rate) (rats; infusion 41.5 ng/kg/min) [mg/kg/min] | HGO (hepatic glucose output) (rats; infusion 41.5 ng/kg/min) [mg/kg/min] | Rd (rate of glucose disappearance) (rats; infusion 41.5 ng/kg/min) [mg/kg/min] | GIR (glucose infusion rate) (rats; infusion 83 ng/kg/min) [mg/kg/min] | GIR (glucose infusion rate) (rats; infusion 100 ng/kg/min) [mg/kg/min] | HGO (hepatic glucose output) (rats; infusion 100 ng/kg/min) [mg/kg/min] | Rd (rate of glucose disappearance) (rats; infusion 100 ng/kg/min) [mg/kg/min] | GIR (glucose infusion rate) (rats; infusion 166 ng/kg/min) [mg/kg/min] | HGO (hepatic glucose output) (rats; infusion 166 ng/kg/min) [mg/kg/min] | Rd (rate of glucose disappearance) (rats; infusion 166 ng/kg/min) [mg/kg/min] | GIR (glucose infusion rate) (rats; infusion 415 ng/kg/min) [mg/kg/min] | HGO (hepatic glucose output) (rats; infusion 415 ng/kg/min) [mg/kg/min] | Rd (rate of glucose disappearance) (rats; infusion 415 ng/kg/min) [mg/kg/min] | circulating half-life [1] [min] | potency relative to native insulin when assayed in vitro [2] | potency relative to insulin in vivo ([3]; of the potency of insulin) | in vivo hepatoselectivity, more than that of insulin ([3]; relative to insulin per se) [%] |
| --- | --- | --- | --- | --- | --- | --- | --- | --- | --- | --- | --- | --- | --- | --- | --- | --- | --- |
| Insulin: insulin, the comparator hormone infused in the rat clamp | 1.7 ± 0.6 | 11.3 ± 0.3 | 13.0 ± 0.3 | 6.9 ± 0.8 | 8.8 ± 1.2 | 9.1 ± 0.7 | 17.8 ± 1.0 | 19.7 ± 0.5 | 6.4 ± 1.1 | 26.1 ± 0.8 | 30.8 ± 1.7 | 3.5 ± 0.7 | 34.3 ± 1.6 | 4 | – | – | – |
| Proinsulin: single chain peptide precursor of insulin synthesized in the islets of Langerhans | – | – | – | – | – | – | – | – | – | – | – | – | – | 30 | 1-2% | about 15% | 50 |
